Entries after “also recorded” stand apart in the source; their conditions may differ.
What was measured:
[1] = target: rat alpha4beta2 receptor (Rattus norvegicus, UniProt P09483+P12390); test: Activation of alpha4beta2 receptors expressed in Xenopus oocytes; assay type: cell-based; details: read-out: alpha4beta2 activation: % response observed with 10 μM acetylcholine
[2] = target: T1, alpha4beta2 receptor (cytisine binding, rat brain membranes) (Rattus norvegicus, UniProt P09483+P12390); test: biochemical; details: 1 μM (Table 2); read-out: alpha4beta2 binding: % inhibition of cytistine binding
T1 construct: from tissue; host or cells: rat brain membranes
Text: Further, the cinnamylidene-anabaseines displaced high affinity cytisine binding to rat brain membranes with lower affinity than other types of benzylidene-anabaseines. These observations are consistent with the cinnamylidene-anabaseines having some selectivity for alpha7 receptor subtypes over other types of nicotinic receptors, especially alpha4beta2 receptors, based on the types of receptors to which alpha-bungarotoxin and cytisine bind to in brain.

[3] = test system: PC12 cells; assay type: cell-based
Method: PC12 cell-culture methods were modified from Greene and Tischler (1976). Cells were plated at 30-40% confluence and grown in Dulbecco's Modified Eagle Medium containing 10% heat-inactivated horse serum, 5% fetal bovine serum, 100 units/ml penicillin, 100 μg/ml streptomycin and 0.5 mM 1-glutamine. Cultures were maintained at 37° C., […] /6% CO2 and 90-92% humidity in culture plates pre-coated with poly-1lysine (10 g/L). Cultures were maintained for 7 days in serum-supplemented medium to which 100 ng/ml rat 2.5S NGF was added at day 1. On day 7, conditioned medium was replaced serum-free medium containing specified drugs. Four days later, cell density was estimated using the NIH Image program version 1.47 and number of neurite-expressing cells counted manually in blind fashion as described previously (Martin et al., 1994). A Nikon inverted microscope (100× magnification) was attached to a Mac II computer via a monochrome video camera (Cohu, Inc., San Diego, Calif.). Four random areas were counted per plate and there were 4 plates per treatment group, unless otherwise indicated. Neurites were defined as processes at least 2× the length of the perikaryon. To assess the reliability of the image analyses, a reticle was used for direct quantification of cells in the same view as the one analyzed in random samples.
PC12 cells were differentiated for 1 week with NGF. Drugs were administered for the 4 day interval after removal of serum and NGF. Neuites were counted and expressed as the mean±SEM of at least 3 plates/group.

[4] = test system: nucleus basalis lesioned rats; test: Passive avoidance behavior in nucleus basalis lesioned rats; assay type: in vivo, rat; details: for passive avoidance behavior (in words): nucleus basalis lesioned rats
Method: Passive avoidance behavior was measured in nucleus basalis lesioned rats after intraperitoneal (IP) injections of drugs (base weight) or 0.9% saline diluent. For lesions, male 5 month old Sprague Dawley rats were anesthetized with 30 mg/kg sodium pentobarbital (IP) and then infused bilaterally with 1 μl of 5 μg/μl ibotenic acid in phosphate buffered saline, pH 7.4, into the nucleus basalis as described previously (17). Infusion coordinates were anterior 7.0 mm, lateral 2.6 mm and vertical 6.5 mm according to Paxinos and Watson (Paxinos and Watson, 1986).
Following surgery, animals were returned to their individual home cages and fed semi-solid mash made from Purina Rat Chow for several days. One month later, animals were trained in a two chamber passive avoidance paradigm. Fifteen min after IP drug injection, they were placed in the lit compartment, and allowed to enter the dark adjoining chamber. Animals that entered the second chamber received a mild foot shock (0.8 mA) for 1 sec. Rats were tested for latency 24 hr later for up to 5 min; this test also began 15 min after injection. Statistical analyses utilized rank order nonparametric comparisons of latencies.

[5] = test system: rat; test: Focal ischemia infarct size in rats; assay type: in vivo
Method: FIG. 3. […] Rats received a 30 minute ischemia attack through tying of their common carotid; the amount of cell death (proportional to Infarct Size) was determined 24 hours later. Some animals received the benzylidene-anabaseine compound DMXB (1 mg/kg IP, salt weight) 1 hour before ligation, or the nicotinic antagonist mecamylamine (0.5 mg/kg IP), or both mecamylamine and DMXB, or DMXB 5 minutes after the ligation.
Male Sprague Dawley albino male rats (250-300 g) were anesthetized with a subcutaneous injection of ketamine, xylazine, and acepromazine (3:3:1 mixture, 0.7 cc/kg). Atropine (0.4 mg/kg IP) was injected several min prior to dissection of the carotid artery from the vagus. The internal carotid artery (ICA) was dissected until its proximal bifurcation into the terminal ICA and pterygopalatine arteries were clearly defined. The pterygopalatine artery was clipped parallel to and flush with the terminal ICA. Another clip was applied to the common carotid artery (CCA). The distal aspect of the external carotid artery (ECA) was coagulated and a straight aneurysm clip was applied 4 mm distal to the proximal ICA bifurcation. A suture was passed through the arteriotomized ECA stump into the ICA until the tip was resting against the aneurysm clip. The suture was removed 30 min later, with body temperature maintained between 36.5-37.5° C. The ECA stump was coagulated with bipolar electrocautery. Clips were removed and the wound was irrigated with saline prior to suturing.
Rats were euthanised 24 hours post-infarction and their brains removed and sectioned coronally (2 mm). Sections were placed into a 2% solution of 2,3,5-triphyenyl-tetrazolium cholide (Sigma Chemical Co., St. Louis. Mo.) for 20 minutes at 37° C. The sections were removed to a petri dish and covered with 10% formaldehyde solution. The outline function of the NIH Image computer program (version 1.47) was used to estimate the infarcted and total brain areas for each section. Infarct size was calculated as percent of total brain area.

[6] = test system: animal models of learning and memory; details: animals; cited from earlier work
[7] = target: rat alpha7 receptor (Rattus norvegicus, UniProt Q05941); details: cited from earlier work
[8] = test system: rat; details: adult rat
[9] = test system: rat; details: in vivo
Method: Eleven male Sprague-Dawley rats were first trained to press the left lever in a two lever operant conditioning chamber. They had limited access to food for 23 hours prior to the first training session and then received 20 grams of food for the remainder of the study. Once subjects reliably pressed the left lever, a catheter was surgically implanted into the right jugular vein. The catheter consisted of three separate pieces of tubing, a 37 mm length of silicon rubber tubing which entered the circulatory system (Silastic Medical Grade tubing), a 65 mm length of polyethylene tubing (Intramedic, PE10) and a 170 mm length of polyethylene tubing with the same internal diameter (Intramedic, PE20). The catheter exited between the scapulae and could be hooked up to a swivel which itself was connected to a pneumatic syringe. […] Once subjects had recovered from surgery they were trained to complete a fixed ratio 2 schedule (FR 2) to activate the pneumatic syringe. […] Each daily experimental session lasted 50 minutes. After several sessions under these conditions, subjects received an intraperitoneal (IP) injection of physiological saline (1 ml/kg), 15 min prior to the start of the self-administration session. The next day subjects were IP injected with 8 mg/kg of GTS-21, also 15 minutes before the beginning of the session.

[10] = test system: NB Lesion; test: NB Lesion (Table 4); assay type: in vivo
[11] = test system: rat primary neocortical neurons; assay type: cell-based

rat alpha7 receptor, sequence (Q05941 23-502): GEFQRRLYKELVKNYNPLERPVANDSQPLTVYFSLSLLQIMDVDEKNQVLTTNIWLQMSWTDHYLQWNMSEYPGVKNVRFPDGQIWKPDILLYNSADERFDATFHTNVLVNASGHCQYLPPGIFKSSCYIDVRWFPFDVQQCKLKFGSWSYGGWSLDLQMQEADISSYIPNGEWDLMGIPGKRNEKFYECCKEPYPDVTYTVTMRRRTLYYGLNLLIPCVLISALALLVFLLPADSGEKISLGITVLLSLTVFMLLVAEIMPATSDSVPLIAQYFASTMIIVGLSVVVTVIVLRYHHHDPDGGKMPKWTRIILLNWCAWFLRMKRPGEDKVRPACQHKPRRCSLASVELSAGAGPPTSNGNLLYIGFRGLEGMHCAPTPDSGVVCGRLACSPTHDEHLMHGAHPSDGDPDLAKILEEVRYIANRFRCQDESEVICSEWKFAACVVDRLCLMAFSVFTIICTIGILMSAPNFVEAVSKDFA
rat alpha4beta2 receptor, sequence (P09483 31-630): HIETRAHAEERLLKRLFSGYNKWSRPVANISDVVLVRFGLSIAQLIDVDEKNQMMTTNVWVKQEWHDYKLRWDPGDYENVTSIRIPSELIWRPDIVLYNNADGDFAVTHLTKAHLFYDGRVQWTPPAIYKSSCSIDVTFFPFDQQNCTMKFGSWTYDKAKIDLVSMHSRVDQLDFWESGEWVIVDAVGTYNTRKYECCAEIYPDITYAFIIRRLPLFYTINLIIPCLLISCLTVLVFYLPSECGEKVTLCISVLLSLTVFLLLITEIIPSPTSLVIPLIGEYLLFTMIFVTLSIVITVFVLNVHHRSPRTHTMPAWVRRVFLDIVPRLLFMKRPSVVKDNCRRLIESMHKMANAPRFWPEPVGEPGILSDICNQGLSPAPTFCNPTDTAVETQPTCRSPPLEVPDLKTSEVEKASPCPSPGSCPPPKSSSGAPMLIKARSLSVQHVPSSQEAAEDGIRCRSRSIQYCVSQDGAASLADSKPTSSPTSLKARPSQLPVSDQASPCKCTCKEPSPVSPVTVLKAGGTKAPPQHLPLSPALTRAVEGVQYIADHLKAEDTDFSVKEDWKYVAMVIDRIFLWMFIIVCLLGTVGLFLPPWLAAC
rat alpha4beta2 receptor, sequence (P12390 25-500): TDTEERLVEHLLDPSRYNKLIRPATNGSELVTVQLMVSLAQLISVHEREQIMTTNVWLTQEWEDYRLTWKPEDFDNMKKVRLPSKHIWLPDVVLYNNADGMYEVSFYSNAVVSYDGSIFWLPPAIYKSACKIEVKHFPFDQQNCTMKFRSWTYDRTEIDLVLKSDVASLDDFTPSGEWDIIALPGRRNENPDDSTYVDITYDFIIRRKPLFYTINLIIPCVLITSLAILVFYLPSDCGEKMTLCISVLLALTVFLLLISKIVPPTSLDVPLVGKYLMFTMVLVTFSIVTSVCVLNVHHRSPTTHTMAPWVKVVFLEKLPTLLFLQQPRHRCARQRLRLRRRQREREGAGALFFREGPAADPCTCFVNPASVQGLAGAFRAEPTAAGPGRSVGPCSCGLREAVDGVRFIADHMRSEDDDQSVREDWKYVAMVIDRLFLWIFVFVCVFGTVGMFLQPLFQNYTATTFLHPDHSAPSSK
T1 sequence (P09483 31-630): as the sequence (P09483 31-630) above
T1 sequence (P12390 25-500): as the sequence (P12390 25-500) above

SMILES: COc1ccccc1/C=C/C=C1\CCCN=C1c1cccnc1 [2-MeOCA, E,E-3-(2-Methoxycinnamylidene)anabaseine]
- Emax [1]: < 3%
- inhibition at 1 µM [2]: 29%
- neurite protection during NGF-deprivation (in words) ([3]; 10 μM): Neither 2-MeOCA nor 4-MeOCA elicited neurite-protection
- Neurite Counts ([3]; 10 μM (NGF 100 ng/ml), 4 days after removal of serum and NGF, mean±SEM, * p<0.05): 213 ± 26
- effective dose-response range, upper end ([4]; IP): at least 3 mg/kg
- passive avoidance behavior (in words) ([4]; IP): most potent
- passive avoidance behavior (in words) ([4]; IP, listed as 2MeOCA): most potent performance-enhancing agent
- passive avoidance behavior (in words) ([4]; IP, listed as trans-3(2-methoxy-cinnamylidene) anabaseine): less potent than the present compounds
- passive avoidance behavior (in words) ([4]; IP, listed as trans-3-(2-methoxycinnamylidene) anabaseine): high potency
- minimal effective dose ([4]; Rattus norvegicus, ip, read-out: effective dose-response range, lower end): < 0.1 mg/kg

SMILES: COc1ccc(/C=C2\CCCN=C2c2cccnc2)c(OC)c1 [DMXB, 3-(2,4-Dimethoxybenzylidene) anabaseine]
- protection against infarct / cell loss, given before ischemia (in words) ([5]; 1 mg/kg IP before ischemia): protected principally in the posterior infarct area; also recorded: protected against cell loss; also recorded: did not have as much cell loss
- infarct size (mean value) ([5]; coronal section 5 mm posterior to frontal pole, saline 28%): 19%
- protection against infarct, given during or after start of ischemia (in words) ([5]; during 30 min ischemic insult): ineffective
- memory-related performance (in words) [6]: enhances performance in several spatial and non-spatial memory-related paradigms in rats and rabbits
- α7 agonist activity (in words) ([7]; background/literature): weak partial agonist activity
- selectivity α7 over α4β2 / other nicotinic subtypes (in words) ([7]; literature): selective as an agonist for α7 versus other nicotinic receptor subtypes
- activity of ACh at α7 receptors ([7]; partial agonist): about 20%
- spontaneous locomotor activity (in words) [8]: without adversely affecting the animal's other functions, including its spontaneous locomotor activity
- nicotine self-administration (in words) [9]: inhibits nicotine self-administration; also recorded: less likely to self-administer nicotine
- NB Lesion [10]: + (≥ 0.5)
- protection against glutamate, concomitant (in words) ([11]; 10 μM, with 1 mM glutamate): not observed when administered concomitantly with glutamate
- protection against NMDA receptor-mediated toxicity (in words) ([11]; 24 hr prior to glutamate or NMDA): protects rat primary neocortical neurons against NMDA-receptor mediated excitotoxicity; also recorded: protected against NMDA receptor-mediated toxicity
- effect on kainate-induced neurotoxicity (in words) ([11]; kainate): no effect
